Laboratory results taken from patent publication US20240050577A1, “CDK INHIBITORS AND PHARMACEUTICAL USES THEREOF” (RISEN (SUZHOU) PHARMA TECH CO., LTD., priority 2022, published 2024).

Test system: OVCAR3 cells
Test: Cell proliferation study (Cell Titer Glo, 72 h)
Type: cell-based
Conditions: Homo sapiens, OVCAR-3, luminescence, read-out: IC50, inhibitory effect on cellular proliferation
Method: OVCAR3 (Cobioer, CBP60294) cell line in logarithmic growth phase was used for these experiments. The cell density was adjusted to 1.1×10^4/mL and the cells were inoculated into a 96-well cell culture plate (Corning, 3599), 95 μL per well (the number of cells per well was 1×10^3). The culture plate was placed in an incubator, with 5% carbon dioxide, at 37° C. and incubated overnight. On the next day, a 10 mM stock solution of test compound was prepared in DMSO (Sigma, RNBF5902). After gradient dilution, a series of working solutions with different concentrations of test compound was prepared using complete medium. Working solution was added into the corresponding wells of the orifice plate, and the plate was placed in a 5% carbon dioxide incubator and cultivated at 37° C. for 72 h, and then removed from the incubator. To each well was added 50 μL Cell Tier Glo (Promega, G7573), and the plate was incubated at room temperature for 10 min, followed by luminescence detection with an enzyme marker. The inhibition curve was obtained with GraphPad 7.0 software using four-parameter equation.

Row | Compound | IC50 [nM]
1 | C[C@@]1(O)CCC[C@H]1n1c(=O)ccc2cnc(Nc3ccc(S(=O)(=O)N4CCC5(CCN(C6CN(c7cc8c(cc7F)C(=O)N(C7CCC(=O)NC7=O)C8=O)C6)CC5)CC4)cc3)nc21 (stereo partly drawn) [Compound 58] | 1000 to 5000
2 | C[C@@]1(O)CCC[C@H]1n1c(=O)ccc2cnc(Nc3ccc(S(=O)(=O)C4CCN(C5CN(C6CCN(c7cc8c(cc7F)C(=O)N(C7CCC(=O)NC7=O)C8=O)CC6)C5)CC4)cc3)nc21 (stereo partly drawn) [Compound 59] | 1000 to 5000
3 | C[C@@]1(O)CCC[C@H]1n1c(=O)ccc2cnc(NC3CCN(S(=O)(=O)N4CCN(CC5CCN(c6cc7c(cc6F)C(=O)N(C6CCC(=O)NC6=O)C7=O)CC5)CC4)CC3)nc21 (stereo partly drawn) [Compound 60] | 1000 to 5000
4 | C[C@@]1(O)CCC[C@H]1n1c(=O)ccc2cnc(NC3CCN(S(=O)(=O)C4CCN(C(=O)CC5CCN(c6cc7c(cc6F)C(=O)N(C6CCC(=O)NC6=O)C7=O)CC5)CC4)CC3)nc21 (stereo partly drawn) [Compound 62] | 1000 to 5000
5 | Cc1nc2c(F)cc(-c3nc(Nc4ccc(S(=O)(=O)NCCOCCOCCNc5cc6c(cc5F)C(=O)N(C5CCC(=O)NC5=O)C6=O)cc4)ncc3F)cc2n1C(C)C (stereo not drawn) [Compound 69] | 1000 to 5000
6 | CC(C)N1CCOc2c(F)cc(-c3nc(Nc4ccc(S(=O)(=O)N5CCN(C6CC7(CCN(c8cccc9c8C(=O)N(C8CCC(=O)NC8=O)C9=O)CC7)C6)CC5)cc4)ncc3F)cc21 (stereo not drawn) [Compound 72] | > 10000
7 | CC(C)N1CCOc2c(F)cc(-c3nc(Nc4ccc(S(=O)(=O)N5CCC(NC(=O)C6CCN(c7cccc8c7C(=O)N(C7CCC(=O)NC7=O)C8=O)CC6)CC5)cc4)ncc3F)cc21 (stereo not drawn) [Compound 73] | > 10000
8 | Cc1nc2c(F)cc(-c3nc(NC4CCN(S(=O)(=O)C5CCN(C(=O)C6CCN(c7cc8c(cc7F)C(=O)N(C7CCC(=O)NC7=O)C8=O)CC6)CC5)CC4)ncc3F)cc2n1C(C)C (stereo not drawn) [Compound 74] | 1000 to 5000
9 | Cc1nc2c(F)cc(-c3nc(NC4CCN(S(=O)(=O)C5CCN(C6CC7(CCN(c8cc9c(cc8F)C(=O)N(C8CCC(=O)NC8=O)C9=O)CC7)C6)CC5)CC4)ncc3F)cc2n1C(C)C (stereo not drawn) [Compound 75] | 1000 to 5000
10 | C[C@@]1(O)CCC[C@H]1n1c(=O)ccc2cnc(Nc3ccc(S(=O)(=O)C4CCN(C5CC6(C5)CN(c5cc7c(cc5F)C(=O)N(C5CCC(=O)NC5=O)C7=O)C6)CC4)cc3)nc21 (stereo partly drawn) [Compound 76] | > 10000
11 | C[C@@]1(O)CCC[C@H]1n1c(=O)ccc2cnc(NC3CCN(S(=O)(=O)C4CCN(C(=O)C5CC6(CCN(c7cc8c(cc7F)C(=O)N(C7CCC(=O)NC7=O)C8=O)CC6)C5)CC4)CC3)nc21 (stereo partly drawn) [Compound 77] | 1000 to 5000
12 | C[C@@]1(O)CCC[C@H]1n1c(=O)ccc2cnc(NC3CCN(S(=O)(=O)C4CCN(C5CC6(C5)CN(C(=O)C5CCN(c7cc8c(cc7F)C(=O)N(C7CCC(=O)NC7=O)C8=O)CC5)C6)CC4)CC3)nc21 (stereo partly drawn) [Compound 85] | 1000 to 5000
13 | C[C@@]1(O)CCC[C@H]1n1c(=O)ccc2cnc(NC3CCN(S(=O)(=O)NCCOCc4cn(CCOCCOCCNc5cccc6c5C(=O)N(C5CCC(=O)NC5=O)C6=O)nn4)CC3)nc21 (stereo partly drawn) [Compound 91] | 1000 to 5000
14 | C[C@@]1(O)CCC[C@H]1n1c(=O)ccc2cnc(NC3CCN(S(=O)(=O)CCCCCCCCCOc4cccc5c4C(=O)N(C4CCC(=O)NC4=O)C5=O)CC3)nc21 (stereo partly drawn) [Compound 92] | > 10000
15 | C[C@@]1(O)CCC[C@H]1n1c(=O)ccc2cnc(NC3CCN(S(=O)(=O)C4CCN(CC5CCN(c6cc7c(cc6F)C(=O)N(C6CCC(=O)NC6=O)C7=O)CC5)CC4)CC3)nc21 (stereo partly drawn) [Compound 93] | 1000 to 5000
16 | C[C@@]1(O)CCC[C@H]1n1c(=O)ccc2cnc(NC3CCN(S(=O)(=O)C4CCN(C5CC(C6CCN(c7cc8c(cc7F)C(=O)N(C7CCC(=O)NC7=O)C8=O)CC6)C5)CC4)CC3)nc21 (stereo partly drawn) [Compound 96] | > 10000
17 | Cc1nc2c(F)cc(-c3nc(NC4CCN(S(=O)(=O)C5CCN(CC6CCC7(CC6)CN(c6cc8c(cc6F)C(=O)N(C6CCC(=O)NC6=O)C8=O)C7)CC5)CC4)ncc3F)cc2n1C(C)C (stereo not drawn) [Compound 97] | 101 to 1000
18 | Cc1nc2c(F)cc(-c3nc(NC4CCN(S(=O)(=O)C5CCN(CC6CC7(CCN(c8cc9c(cc8F)C(=O)N(C8CCC(=O)NC8=O)C9=O)CC7)C6)CC5)CC4)ncc3F)cc2n1C(C)C (stereo not drawn) [Compound 98] | 101 to 1000
19 | Cc1nc2c(F)cc(-c3nc(NC4CCN(S(=O)(=O)C5CCN(CC6CC7CCC(C6)N7c6cc7c(cc6F)C(=O)N(C6CCC(=O)NC6=O)C7=O)CC5)CC4)ncc3F)cc2n1C(C)C (stereo not drawn) [Compound 99] | 101 to 1000
20 | Cc1nc2c(F)cc(-c3nc(NC4CCN(S(=O)(=O)C5CN(CC6CCN(c7cc8c(cc7F)C(=O)N(C7CCC(=O)NC7=O)C8=O)CC6)C5)CC4)ncc3F)cc2n1C(C)C (stereo not drawn) [Compound 100] | 101 to 1000
21 | Cc1nc2c(F)cc(-c3nc(NC4CCN(S(=O)(=O)C5CCN(CC6CC7CCC(C6)N7C6CN(c7cc8c(cc7F)C(=O)N(C7CCC(=O)NC7=O)C8=O)C6)CC5)CC4)ncc3F)cc2n1C(C)C (stereo not drawn) [Compound 101] | < 100
22 | Cc1nc2c(F)cc(-c3nc(NC4CCN(S(=O)(=O)C5CCN(CC6CC(N7CCC(c8cccc(C9CCC(=O)NC9=O)c8)CC7)C6)CC5)CC4)ncc3F)cc2n1C(C)C (stereo not drawn) [Compound 102] | 101 to 1000
23 | Cc1nc2c(F)cc(-c3nc(NC4CCN(S(=O)(=O)C5CCN(CCC6CCN(c7cc8c(cc7F)C(=O)N(C7CCC(=O)NC7=O)C8=O)CC6)CC5)CC4)ncc3F)cc2n1C(C)C (stereo not drawn) [Compound 104] | 101 to 1000
24 | Cc1nc2c(F)cc(-c3nc(Nc4ccc(S(=O)(=O)N5CCC6(CCN(C(=O)CNc7cc8c(cc7F)C(=O)N(C7CCC(=O)NC7=O)C8=O)CC6)CC5)cc4)ncc3F)cc2n1C(C)C (stereo not drawn) [Compound 105] | 101 to 1000
25 | Cc1nc2c(F)cc(-c3nc(Nc4ccc(S(=O)(=O)N5CCC6(CCN(CC7CCN(c8cc9c(cc8F)C(=O)N(C8CCC(=O)NC8=O)C9=O)CC7)CC6)CC5)cc4)ncc3F)cc2n1C(C)C (stereo not drawn) [Compound 106] | 1000 to 5000
26 | C[C@@]1(O)CCC[C@H]1n1c(=O)ccc2cnc(NC3CCN(S(=O)(=O)C4CCN(C5CC6(CCN(c7cccc8c7C(=O)N(C7CCC(=O)NC7=O)C8=O)CC6)C5)CC4)CC3)nc21 (stereo partly drawn) [Compound 107] | 101 to 1000

Second part, the compound after the results:

Row | IC50 [nM] | Compound
27 | 101 to 1000 | C[C@@]1(O)CCC[C@H]1n1c(=O)ccc2cnc(NC3CCN(S(=O)(=O)N4CCN(CC5CCN(c6cc7c(cc6F)C(=O)N(C6CCC(=O)NC6=O)C7=O)C5)CC4)CC3)nc21 (stereo partly drawn) [Compound 61]
28 | 101 to 1000 | Cc1nc2c(F)cc(-c3nc(Nc4ccc(S(=O)(=O)C5CCN(CC6CCN(C7CN(c8cc9c(cc8F)C(=O)N(C8CCC(=O)NC8=O)C9=O)C7)CC6)CC5)cc4)ncc3F)cc2n1C(C)C (stereo not drawn) [Compound 65]
29 | < 100 | Cc1nc2c(F)cc(-c3nc(Nc4ccc(S(=O)(=O)C5CCN(C6CN(C7CCN(c8cc9c(cc8F)C(=O)N(C8CCC(=O)NC8=O)C9=O)CC7)C6)CC5)cc4)ncc3F)cc2n1C(C)C (stereo not drawn) [Compound 66]
30 | 101 to 1000 | C[C@@]1(O)CCC[C@H]1n1c(=O)ccc2cnc(NC3CCN(S(=O)(=O)C4CCN(C(=O)C5CCN(c6cc7c(cc6F)C(=O)N(C6CCC(=O)NC6=O)C7=O)CC5)CC4)CC3)nc21 (stereo partly drawn) [Compound 67]
31 | 101 to 1000 | Cc1nc2c(F)cc(-c3nc(Nc4ccc(S(=O)(=O)N5CCN(CC6CCN(c7ccc8c(c7)C(=O)N(C7CCC(=O)NC7=O)C8=O)CC6)CC5)cc4)ncc3F)cc2n1C(C)C (stereo not drawn) [Compound 68]
32 | 101 to 1000 | Cc1nc2c(F)cc(-c3nc(Nc4ccc(S(=O)(=O)NCCOCCNc5cc6c(cc5F)C(=O)N(C5CCC(=O)NC5=O)C6=O)cc4)ncc3F)cc2n1C(C)C (stereo not drawn) [Compound 70]
33 | < 100 | Cc1nc2c(F)cc(-c3nc(NC4CCN(S(=O)(=O)C5CCN(CC6CCN(c7cc8c(cc7F)C(=O)N(C7CCC(=O)NC7=O)C8=O)CC6)CC5)CC4)ncc3F)cc2n1C(C)C (stereo not drawn) [Compound 71]
34 | 101 to 1000 | C[C@@]1(O)CCC[C@H]1n1c(=O)ccc2cnc(NC3CCN(S(=O)(=O)C4CCN(C(=O)C5CCC6(CC5)CCN(c5cc7c(cc5F)C(=O)N(C5CCC(=O)NC5=O)C7=O)CC6)CC4)CC3)nc21 (stereo partly drawn) [Compound 78]
35 | 101 to 1000 | C[C@@]1(O)CCC[C@H]1n1c(=O)ccc2cnc(NC3CCN(S(=O)(=O)C4CCN(C5CCC6(CCN(c7cc8c(cc7F)C(=O)N(C7CCC(=O)NC7=O)C8=O)CC6)C5)CC4)CC3)nc21 (stereo partly drawn) [Compound 81]
36 | 101 to 1000 | C[C@@]1(O)CCC[C@H]1n1c(=O)ccc2cnc(NC3CCN(S(=O)(=O)C4CCN(CC5CC6(CCN(c7cc8c(cc7F)C(=O)N(C7CCC(=O)NC7=O)C8=O)CC6)C5)CC4)CC3)nc21 (stereo partly drawn) [Compound 82]
37 | 101 to 1000 | C[C@@]1(O)CCC[C@H]1n1c(=O)ccc2cnc(NC3CCN(S(=O)(=O)C4CCN(C5CCC6(CCN(c7cc8c(cc7F)C(=O)N(C7CCC(=O)NC7=O)C8=O)C6)C5)CC4)CC3)nc21 (stereo partly drawn) [Compound 84]
38 | 101 to 1000 | C[C@@]1(O)CCC[C@H]1n1c(=O)ccc2cnc(NC3CCN(S(=O)(=O)C4CCN(C5CC6(CC(NC(=O)C7CCN(c8cc9c(cc8F)C(=O)N(C8CCC(=O)NC8=O)C9=O)CC7)C6)C5)CC4)CC3)nc21 (stereo partly drawn) [Compound 86]
39 | 101 to 1000 | C[C@@]1(O)CCC[C@H]1n1c(=O)ccc2cnc(NC3CCN(S(=O)(=O)C4CCN(C5CCC6(CC5)CCN(c5cc7c(cc5F)C(=O)N(C5CCC(=O)NC5=O)C7=O)CC6)CC4)CC3)nc21 (stereo partly drawn) [Compound 89]
40 | 101 to 1000 | C[C@@]1(O)CCC[C@H]1n1c(=O)ccc2cnc(NC3CCN(S(=O)(=O)C4CCN(CC5CCC6(CC5)CCN(c5cc7c(cc5F)C(=O)N(C5CCC(=O)NC5=O)C7=O)CC6)CC4)CC3)nc21 (stereo partly drawn) [Compound 90]
41 | < 100 | Cc1nc2c(F)cc(-c3nc(NC4CCN(S(=O)(=O)C5CCN(CC6CC(N7CCC(c8ccc9c(C%10CCC(=O)NC%10=O)nn(C)c9c8)CC7)C6)CC5)CC4)ncc3F)cc2n1C(C)C (stereo not drawn) [Compound 103]
42 | < 100 | Cc1nc2c(F)cc(-c3nc(NC4CCN(S(=O)(=O)C5CCN(CC6CCN(c7cc8c(cc7F)C(=O)N(C7CCC(=O)NC7=O)C8=O)C6)CC5)CC4)ncc3F)cc2n1C(C)C (stereo not drawn) [Compound 108]
